# Results: patent EP0525836B1, “Assay method using novel NAD synthetase” (priority 1986, dated 1988)
# Assays:
# NAD synthetase [1] = target: T1, NAD synthetase (Geobacillus stearothermophilus ATCC 12980, UniProt A0ACH1E6M2); experiment: biochemical; type: biochemical, Bacillus stearothermophilus H-804; settings: for Relative activity: which contains MgCℓ2 5 mM, no addition = 100
# T1 sequence (A0ACH1E6M2 1-246): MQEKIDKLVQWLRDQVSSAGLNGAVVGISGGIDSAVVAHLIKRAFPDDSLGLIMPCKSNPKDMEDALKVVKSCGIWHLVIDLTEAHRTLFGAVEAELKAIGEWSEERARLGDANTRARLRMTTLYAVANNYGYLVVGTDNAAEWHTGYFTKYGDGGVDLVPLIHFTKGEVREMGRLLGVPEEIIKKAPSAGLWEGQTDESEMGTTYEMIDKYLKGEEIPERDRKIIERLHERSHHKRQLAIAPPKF
# Experimental: In the enzyme activity assay, each metallic ion ( 5 mM ), EDTA ( 20 mM ) or each surface active agent ( 0.1 % ) in Table 1 is added separately to the reaction medium I, and the enzyme activity is measured. […]
# (§1) • 50 mM Tris-HC ℓ buffer pH 8.0 • 1 mM K C ℓ • 5 mM MgC ℓ 2 • 0.05 % bovine serum albumin • 2 mM ATP • 0.5 mM deamide-NAD • 25 mM ( NH4 )2 SO4
# (§2) • 50 mM Tris-HCℓ buffer pH 8.0 • 10 U diaphorase ( Toyo Jozo Co. from genus Bacillus) • 3 % ethanol • 10 U alcohol dehydrogenase/m ℓ ( Toyo Jozo, yeast ) • 0.025 % NTB ( nitrotetrazolium blue ) • 0.1 % Triton X-100 • 10 mM EDTA
# (§3) Reaction medium I ( 0.3 mℓ ) in a test tube is pre-incubated at 37 °C, and the enzyme solution ( 5 µ ℓ ) is added thereto. The mixture is then incubated at 37 °C for exactly 10 minutes.
# (§4) Reaction medium II ( 0.8 mℓ ) is added thereto to stop the reaction and simultaneously to start the cycling reaction at 37°C for exactly 5 minutes. After stopping the cycling reaction by adding 0.1 N-HC ℓ( 2.0 mℓ) , the absorbency at 550 nm is measured to calculate the enzyme activity. The enzyme activity is calculated by the following equation : NAD synthetase activity ( mU/ m ℓ ) = (ΔA550)/(ΔS550)x(1.0)/(0.005)x(f)/(10) [formula] wherein ΔA: absorbency of specimen, ΔS: absorbency of standard solution ( 0.1 mM NAD ), 0.005: specimen volume ( mℓ ) 10 : reaction time, f : dilution ration.
# NAD synthetase [2] = target: T1, NAD synthetase; experiment: Substrate specificity: ( NH4 ) 2SO4 replaced by amino acids in the enzyme activity assay; type: biochemical, Bacillus stearothermophilus H-804; settings: ( NH4 ) 2SO4 25 mM replaced by the amino acid, activity on ( NH4 ) 2SO4 is 100; for activity at 25000 µM: read-out: Relative activity of the enzyme
# Experimental: In any assay method for enzyme activity hereinafter described, ( NH4 ) 2SO4 25 mM may be replaced by L-valine, L-homosirine, L-serine, L-alanine, L-methine, L-tyrosine, L-threonine, L-leucine, L-isolucine, L-arginine, L-phenylalanine, L-histidine, L-asparagine or L-glutamine, and the enzymatic activity measured.
# as §1, §2, §3, §4
# [3] = target: NAD synthetase ( EC 6.3.1.5 ) (Escherichia coli, UniProt P18843); settings: read-out: km-value, literature value; cited from earlier work
# NAD synthetase [4] = target: T1, NAD synthetase; experiment: Optimum concentration of metallic ion (Example 8); type: biochemical, Bacillus stearothermophilus H-804; settings: 0.25 to 4 mM tested in reaction medium I without MgCℓ2
# Experimental: Reaction medium I : • 50 mM Tris-HC ℓ buffer pH 8.0 • 10 mM KC ℓ • 2 mM ATP • 0.05 % bovine serum albumin • 0.5 mM deamide-NAD • 25 mM ( NH4 )2SO4
# Reaction medium II: • 50 mM Tris-HC ℓ buffer pH 8.0 • 10 U diaphorase/m ℓ ( Toyo Jozo Co, Bacillus ) • 3 % ethanol • 10 U alcohol dehydrogenase/mℓ (Toyobo Co, yeast) • 0.025 % NTB • 0.1 % Triton X-100 • 10mM EDTA
# To a reaction medium I in a test tube were added 0.25, 0.50, 0.75, 1, 2, 3 and 4 mM MgCℓ2 and 0.25, 0.50, 0.75, 1, 2, 3 and 4 mM MnCℓ2, respectively; each was then treated, after adding the present NAD synthetase solution, according to an assay method as previously illustrated.
# Optimum concentration of MnCℓ2 is at 3mM.
# [5] = metallic ion 5 mM added to reaction medium I, 10 min
# [6] = surface active agent 0.1 % added to reaction medium I
# Chain of NAD synthetase ( EC 6.3.1.5 ) (P18843 whole entry): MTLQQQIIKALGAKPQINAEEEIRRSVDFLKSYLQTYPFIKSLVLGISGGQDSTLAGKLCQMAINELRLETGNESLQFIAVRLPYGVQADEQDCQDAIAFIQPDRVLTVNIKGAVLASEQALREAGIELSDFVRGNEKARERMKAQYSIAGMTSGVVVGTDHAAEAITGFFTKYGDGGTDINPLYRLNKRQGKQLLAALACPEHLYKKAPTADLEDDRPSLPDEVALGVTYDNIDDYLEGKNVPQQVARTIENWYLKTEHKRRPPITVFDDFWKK
Compound,activity at 25000 µM (NAD synthetase [2]),Relative activity (NAD synthetase [1]; [5]),other results
"O=C(O)CN(CCN(CC(=O)O)CC(=O)O)CC(=O)O [EDTA, reference compound]",,,Effect on enzyme activity (NAD synthetase [1]; 20000 µM): no activity; activity at 20000 µM (NAD synthetase [1]; read-out: Relative activity): 0%
C[C@H](N)C(=O)O [L-alanine],0%,,
N=C(N)NCCC[C@H](N)C(=O)O [L-arginine],0%,,
NC(=O)C[C@H](N)C(=O)O [L-asparagine],0%,,
NC(=O)CC[C@H](N)C(=O)O [L-glutamine],0%,,Km [3]: 16 mM
N[C@@H](Cc1c[nH]cn1)C(=O)O [L-histidine],0%,,
N[C@@H](CCO)C(=O)O [L-homosirine],0%,,
CC[C@H](C)[C@H](N)C(=O)O [L-isolucine],0%,,
CC(C)C[C@H](N)C(=O)O [L-leucine],0%,,
CSCC[C@H](N)C(=O)O [L-methine],0%,,
N[C@@H](Cc1ccccc1)C(=O)O [L-phenylalanine],0%,,
N[C@@H](CO)C(=O)O [L-serine],0%,,
C[C@@H](O)[C@H](N)C(=O)O [L-threonine],0%,,
N[C@@H](Cc1ccc(O)cc1)C(=O)O [L-tyrosine],0%,,
CC(C)[C@H](N)C(=O)O [L-valine],0%,,
AℓCℓ3,,73.4%,
BaCℓ2,,89.5%,
CaCℓ2,,48.4%,
CsCℓ,,100%,
FeCℓ3,,88.4%,
KNO3,,99.2%,
LiCℓ,,100%,
MnCℓ2,,54.0%,Optimum concentration (NAD synthetase [4]): 3 mM
NaCℓ,,102.4%,
NaN3,,102.4%,
NaNO3,,96.8%,
NiCℓ2,,7.3%,Effect on enzyme activity (NAD synthetase [1]; 5 mM in reaction medium I): inhibited
Nonidet P-40,,,Relative activity (NAD synthetase [1]; [6]): 103.9%
ammonium sulfate [( NH4 ) 2SO4],,,Relative activity of the enzyme (NAD synthetase [2]): 100
iso-octyl phenoxy polyethyloxy ethanol [Triton X-100],,,Relative activity (NAD synthetase [1]; [6]): 109.6%
